Marks after values point to notes of the source that are not given here.
How the values were obtained:
NMDA receptor = conditions: Grigoriev et al. Chim. Pharm. Journal, 1988; cited from earlier work
[1] = at the doses in which it produces its anti-NMDA effect; cited from earlier work
Male Wistar rats [2] = test: Chronic anticonvulsant activity using the kainic acid seizure test in rat; assay type: in vivo; conditions: for Wet-shakes Presence: 120 min observation; for Wet-shakes Presence / Rearings Presence / Rearings with Forelimb Clonus Presence: out of 10 animals; for Forelimb Clonus No.: average number of all animals; for Rearings Latency / Rearings with Forelimb Clonus Latency / Wet-shakes Latency: average of all animals
From the text: Chronic Anticonvulsant Activity Using the Kainic Acid Seizure Test in Rat. Dimebolins, including the compounds described herein, are shown to be efficacious in the rat kainic acid anticonvulsant activity model. It is appreciated that this model, though general, may also most closely correspond to and/or be more predictive of temporal lobe epilepsy found in humans. However, it is to be understood that this model is a general surrogate for all types of epilepsy.
Male Wistar rats (such as Male Rj: Wistar (Han) rats, weighing 180-280 g at the day of testing, from Elevage Janvier, 53940 Le Genest-Saint-Isle, France) are placed in groups of 4-5 in macrolon cages (41×25×18 cm or 44×28×19 cm) on wood litter (Litalabo—SPPS, 95100 Argenteuil, France), with free access to food and water until tested, and maintained under artificial lighting (12 hours) between 7:00 and 19:00 in a controlled ambient temperature of about 21° C., and relative humidity between 30-80%. Animals are acclimatized to laboratory conditions for least 3 days. Animals surviving the experiments are sacrificed at the end of the experiments by exposure to a mixture of O2/CO2 (20%/80%) followed by CO2.
Dimebon, or an analog or derivative thereof, either alone or in combination with one or more other compounds as described herein, is evaluated at 3 doses (e.g. 1, 3, and 10 mg/kg), administered i.p. once daily for seven days, with a administration volume of 5 mL/kg. The last administration (7th) is injected 30 minutes prior to kainic acid administration, and compared with a vehicle control group. The test article (single compound or combination) is prepared in 0.2% HPMC in physiological saline as follows: The test article is tested for solubility by cold stirring of the highest intended dose for 10 minutes in physiological saline. If soluble, physiological saline serves as vehicle, and doses are prepared W/V (stock) and then V/V (serial dilutions). Preparations may be made freshly for each day of administration and precautions may be taken to preserve the homogeneity of suspensions (if applicable) during the period of administration.
Diazepam (4 mg/kg i.p.) is administered in 0.2% HPMC in physiological saline 30 minutes prior to KA, and is used as reference substance (positive control). Kainic acid (12 mg/kg i.p.) dissolved in physiological saline is administered 30 minutes following the 7th administration of test article, diazepam, or vehicle control. Additional details are described in Ben-Ari et al, Neuroscience, 6, 1361-1391, 1981 for detecting anticonvulsant activity related to a glutamatergic mechanism.
Animals are injected with kainic acid (12 mg/kg i.p.). The occurrences of the following symptoms are noted over a 120 minute period after kainic acid injection: wet-shakes, rearings, and rearings with forelimb clonus. […] In addition, the latencies to the first appearance of the symptoms are measured and the number of forelimb clonus are counted. The number of forelimb clonus episodes per time interval starting from the first occurrence of forelimb clonus will be considered regarding the severity scale. 10 animals are studied per group. The test is performed blind. Quantitative data is analyzed by comparing treated groups with vehicle control using unpaired Student's t tests. Quantal data is analyzed by comparing treated groups with vehicle control using Fisher's Exact Probability tests.

Male Wistar rats [3] = test: Acute anticonvulsant activity using the kainic acid seizure test in rat; assay type: in vivo; conditions: single dose 100 mg/kg i.p. 60 minutes prior to kainic acid
Procedure: Male Wistar rats (such as Male Rj: […] Animals are acclimatized to laboratory conditions for least 3 days. […] Additional details are described in Ben-Ari et al, Neuroscience, 6, 1361-1391, 1981 for detecting anticonvulsant activity related to a glutamatergic mechanism. Animals are injected with kainic acid (12 mg/kg i.p.). The occurrences of the following symptoms are noted over a 120 minute period after kainic acid injection: wet-shakes, rearings, and rearings with forelimb clonus. […] In addition, the latencies to the first appearance of the symptoms are measured and the number of forelimb clonus are counted. The number of forelimb clonus episodes per time interval starting from the first occurrence of forelimb clonus will be considered regarding the severity scale. 10 animals are studied per group. The test is performed blind. Quantitative data is analyzed by comparing treated groups with vehicle control using unpaired Student's t tests. Quantal data is analyzed by comparing treated groups with vehicle control using Fisher's Exact Probability tests. Acute Anticonvulsant Activity Using the Kainic Acid Seizure Test in Rat. Dimebon, or an analog or derivative thereof, including the compounds described herein, is shown to be efficacious in the rat kainic acid anticonvulsant activity model. […] The 100 mg/kg formulation is prepared in 0.2% HPMC in physiological saline.

[4] = reference substance 4 mg/kg i.p. 30 minutes prior to kainic acid
[5] = reference substance 4 mg/kg i.p. 30 minutes prior to kainic acid 12 mg/kg i.p.
[6] = 1 mg/kg i.p. once daily 7 days, last 30 min before kainic acid
[7] = 1 mg/kg i.p. once daily 7 days, last 30 min before kainic acid 12 mg/kg i.p.
[8] = 3 mg/kg i.p. once daily 7 days, last 30 min before kainic acid
[9] = 3 mg/kg i.p. once daily 7 days, last 30 min before kainic acid 12 mg/kg i.p.
[10] = 10 mg/kg i.p. once daily 7 days, last 30 min before kainic acid
[11] = 10 mg/kg i.p. once daily 7 days, last 30 min before kainic acid 12 mg/kg i.p.

NC(CCCP(=O)(O)O)C(=O)O (stereo not drawn) [AP5, 2-amino-5-phosphonovaleric acid]
ED50 (anti-NMDA effect) (NMDA receptor): 190 mg/kg | neurotoxic effects [1]: disturbance of coordination of movement and a sedative effect

CN1C(=O)CN=C(c2ccccc2)c2cc(Cl)ccc21 [Diazepam]
Forelimb Clonus No., % change from vehicle (Male Wistar rats [2]; [4]): −79% | Rearings Latency, % change from vehicle (Male Wistar rats [2]; [4]): +8% | Rearings Presence, % change from vehicle (Male Wistar rats [2]; [4]): 0% | Rearings with Forelimb Clonus Latency, % change from vehicle (Male Wistar rats [2]; [4]): +36% | Rearings with Forelimb Clonus Presence, % change from vehicle (Male Wistar rats [2]; [4]): −60% | Wet-shakes Latency, % change from vehicle (Male Wistar rats [2]; [4]): +53% | Wet-shakes Presence, % change from vehicle (Male Wistar rats [2]; [4]): −10% | Wet-shakes Presence (Male Wistar rats [2]; [5]): 9 ^NS | Forelimb Clonus No. (Male Wistar rats [2]; [5]): 0.6 ** | Rearings Latency (Male Wistar rats [2]; [5]): 4282 ^NS seconds | Rearings with Forelimb Clonus Latency (Male Wistar rats [2]; [5]): 6841 *** seconds | Wet-shakes Latency (Male Wistar rats [2]; [5]): 3753 * seconds | Rearings Presence (Male Wistar rats [2]; [5]): 9 ^NS | Rearings with Forelimb Clonus Presence (Male Wistar rats [2]; [5]): 4 *^

Cc1ccc2c(c1)c1c(n2CCc2ccc(C)nc2)CCN(C)C1 [Dimebon, 2,8-dimethyl-5-[2-(6-methyl-3-pyridyl)ethyl]-2,3,4,5-tetrahydro-1H-pyrido[4,3-b]indole]
Forelimb Clonus No., % change from vehicle (Male Wistar rats [2]; [6]): −32% | Rearings Latency, % change from vehicle (Male Wistar rats [2]; [6]): +24% | Rearings Presence, % change from vehicle (Male Wistar rats [2]; [6]): −33% | Rearings with Forelimb Clonus Latency, % change from vehicle (Male Wistar rats [2]; [6]): +19% | Rearings with Forelimb Clonus Presence, % change from vehicle (Male Wistar rats [2]; [6]): −30% | Wet-shakes Latency, % change from vehicle (Male Wistar rats [2]; [6]): +47%^(h) | Wet-shakes Presence, % change from vehicle (Male Wistar rats [2]; [6]): −20%^(g) | Wet-shakes Presence (Male Wistar rats [2]; [7]): 8 ^NS | Forelimb Clonus No. (Male Wistar rats [2]; [7]): 1.9 ^NS | Rearings Latency (Male Wistar rats [2]; [7]): 4896 ^NS seconds | Rearings with Forelimb Clonus Latency (Male Wistar rats [2]; [7]): 6009 * seconds | Wet-shakes Latency (Male Wistar rats [2]; [7]): 3615 ^NS seconds | Rearings Presence (Male Wistar rats [2]; [7]): 6 ^NS | Rearings with Forelimb Clonus Presence (Male Wistar rats [2]; [7]): 7 ^NS | Forelimb Clonus No., % change from vehicle (Male Wistar rats [2]; [8]): −11% | Rearings Latency, % change from vehicle (Male Wistar rats [2]; [8]): +4% | Rearings Presence, % change from vehicle (Male Wistar rats [2]; [8]): 0% | Rearings with Forelimb Clonus Latency, % change from vehicle (Male Wistar rats [2]; [8]): +7% | Rearings with Forelimb Clonus Presence, % change from vehicle (Male Wistar rats [2]; [8]): −10% | Wet-shakes Latency, % change from vehicle (Male Wistar rats [2]; [8]): +9% | Wet-shakes Presence, % change from vehicle (Male Wistar rats [2]; [8]): 0% | Wet-shakes Presence (Male Wistar rats [2]; [9]): 10 ^NS | Forelimb Clonus No. (Male Wistar rats [2]; [9]): 2.5 ^NS | Rearings Latency (Male Wistar rats [2]; [9]): 4134 ^NS seconds | Rearings with Forelimb Clonus Latency (Male Wistar rats [2]; [9]): 5366 ^NS seconds | Wet-shakes Latency (Male Wistar rats [2]; [9]): 2666 ^NS seconds | Rearings Presence (Male Wistar rats [2]; [9]): 9 ^NS | Rearings with Forelimb Clonus Presence (Male Wistar rats [2]; [9]): 9 ^NS | Forelimb Clonus No., % change from vehicle (Male Wistar rats [2]; [10]): −18% | Rearings Latency, % change from vehicle (Male Wistar rats [2]; [10]): +14% | Rearings Presence, % change from vehicle (Male Wistar rats [2]; [10]): −11% | Rearings with Forelimb Clonus Latency, % change from vehicle (Male Wistar rats [2]; [10]): +7% | Rearings with Forelimb Clonus Presence, % change from vehicle (Male Wistar rats [2]; [10]): −10% | Wet-shakes Latency, % change from vehicle (Male Wistar rats [2]; [10]): +17% | Wet-shakes Presence, % change from vehicle (Male Wistar rats [2]; [10]): 0% | Wet-shakes Presence (Male Wistar rats [2]; [11]): 10 ^NS | Forelimb Clonus No. (Male Wistar rats [2]; [11]): 2.3 ^NS | Rearings Latency (Male Wistar rats [2]; [11]): 4526 ^NS seconds | Rearings with Forelimb Clonus Latency (Male Wistar rats [2]; [11]): 5410 ^NS seconds | Wet-shakes Latency (Male Wistar rats [2]; [11]): 2865 ^NS seconds | Rearings Presence (Male Wistar rats [2]; [11]): 8 ^NS | Rearings with Forelimb Clonus Presence (Male Wistar rats [2]; [11]): 9 ^NS | Forelimb Clonus No., % change from vehicle (Male Wistar rats [3]): −54% | Rearings Latency, % change from vehicle (Male Wistar rats [3]): +57% | Rearings Presence, % change from vehicle (Male Wistar rats [3]): −78% | Rearings with Forelimb Clonus Latency, % change from vehicle (Male Wistar rats [3]): −10% | Rearings with Forelimb Clonus Presence, % change from vehicle (Male Wistar rats [3]): −40% | Wet-shakes Latency, % change from vehicle (Male Wistar rats [3]): +79%^(f) | Wet-shakes Presence, % change from vehicle (Male Wistar rats [3]): −50%^(e) | Forelimb Clonus No. (Male Wistar rats [3]; average number of all animals): 1.3 ^NS | Rearings Latency (Male Wistar rats [3]; average of all animals): 6197 * seconds | Rearings with Forelimb Clonus Latency (Male Wistar rats [3]; average of all animals): 4546 ^NS seconds | Wet-shakes Latency (Male Wistar rats [3]; average of all animals): 4394 ^NS seconds | Rearings Presence (Male Wistar rats [3]; out of 10 animals): 2 * | Rearings with Forelimb Clonus Presence (Male Wistar rats [3]; out of 10 animals): 6 ^NS | Wet-shakes Presence (Male Wistar rats [3]; out of 10 animals): 5 ^NS
